According to the supplement of paper PMC10307832:

Columns and labels:
Experiment in all cases: relative viability (nuclei count vs DMSO), 5 days (fraction); higher = more cells survive
KN-93 + Tozasertib = compound: CN(C/C=C/C1=CC=C(C=C1)Cl)CC2=CC=CC=C2N(CCO)S(=O)(=O)C3=CC=C(C=C3)OC [KN-93] + Cc1cc(Nc2cc(N3CCN(C)CC3)nc(Sc3ccc(NC(=O)C4CC4)cc3)n2)n[nH]1 [Tozasertib] (partner 0.1 µM)
Method in brief: (§1)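 Lung cancer cell lines in 1536-well plates got either a single drug or a fixed anchor-drug dose together with five library-drug doses (not always all listed) in √10 steps, by pin tool, on the day after seeding. Nuclei were counted after 5 days, and relative viability is the treated-to-vehicle ratio of nuclei counts. Values are medians of duplicate plates.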

KN-93 + Pictilisib = compound: CN(C/C=C/C1=CC=C(C=C1)Cl)CC2=CC=CC=C2N(CCO)S(=O)(=O)C3=CC=C(C=C3)OC [KN-93] + CS(=O)(=O)N1CCN(Cc2cc3nc(-c4cccc5[nH]ncc45)nc(N4CCOCC4)c3s2)CC1 [Pictilisib] (partner 1 µM)
Method in brief: as §1

KN-93 + Alpelisib = compound: CN(C/C=C/C1=CC=C(C=C1)Cl)CC2=CC=CC=C2N(CCO)S(=O)(=O)C3=CC=C(C=C3)OC [KN-93] + Cc1nc(NC(=O)N2CCC[C@H]2C(N)=O)sc1-c1ccnc(C(C)(C)C(F)(F)F)c1 [Alpelisib] (partner 2 µM)
Method in brief: as §1

KN-93 + Phenformin = compound: CN(C/C=C/C1=CC=C(C=C1)Cl)CC2=CC=CC=C2N(CCO)S(=O)(=O)C3=CC=C(C=C3)OC [KN-93] + N=C(N)NC(=N)NCCc1ccccc1 [Phenformin] (partner 250 µM)
Method in brief: as §1

KN-93 + Vorinostat = compound: CN(C/C=C/C1=CC=C(C=C1)Cl)CC2=CC=CC=C2N(CCO)S(=O)(=O)C3=CC=C(C=C3)OC [KN-93] + O=C(CCCCCCC(=O)Nc1ccccc1)NO [Vorinostat] (partner 1 µM)
Method in brief: as §1

| Cell Line | relative viability (KN-93 + Tozasertib; first compound 0.08 µM) | relative viability (KN-93 + Tozasertib; first compound 0.253 µM) | relative viability (KN-93 + Tozasertib; first compound 2.53 µM) | relative viability (KN-93 + Tozasertib; first compound 8 µM) | relative viability (KN-93 + Pictilisib; first compound 0.08 µM) | relative viability (KN-93 + Pictilisib; first compound 0.253 µM) | relative viability (KN-93 + Pictilisib; first compound 2.53 µM) | relative viability (KN-93 + Pictilisib; first compound 8 µM) | relative viability (KN-93 + Alpelisib; first compound 0.08 µM) | relative viability (KN-93 + Alpelisib; first compound 0.253 µM) | relative viability (KN-93 + Alpelisib; first compound 2.53 µM) | relative viability (KN-93 + Alpelisib; first compound 8 µM) | relative viability (KN-93 + Phenformin; first compound 0.08 µM) | relative viability (KN-93 + Phenformin; first compound 0.253 µM) | relative viability (KN-93 + Phenformin; first compound 2.53 µM) | relative viability (KN-93 + Phenformin; first compound 8 µM) | relative viability (KN-93 + Vorinostat; first compound 0.08 µM) | relative viability (KN-93 + Vorinostat; first compound 0.253 µM) | relative viability (KN-93 + Vorinostat; first compound 2.53 µM) | relative viability (KN-93 + Vorinostat; first compound 8 µM) |
| --- | --- | --- | --- | --- | --- | --- | --- | --- | --- | --- | --- | --- | --- | --- | --- | --- | --- | --- | --- | --- |
| NCI-H650 | 0.738 | 0.762 | 0.694 | 0.523 | 0.906 | 0.892 | 1.06 | 0.605 | 1.04 | 1.34 | 1.04 | 0.65 | 0.481 | 0.47 | 0.449 | 0.414 | 0.495 | 0.422 | 0.544 | 0.346 |
| NCI-H661 | 0.365 | 0.355 | 0.342 | 0.36 | 0.396 | 0.417 | 0.336 | 0.253 | 0.578 | 0.597 | 0.796 | 0.161 | 0.307 | 0.273 | 0.26 | 0.294 | 0.703 | 0.923 | 0.641 | 0.535 |
| NCI-H727 | 0.689 | 0.658 | 0.465 | 0.447 | 0.434 | 0.264 | 0.379 | 0.231 | 0.466 | 0.525 | 0.563 | 0.378 | 0.576 | 0.601 | 0.814 | 0.533 | 1.05 | – | 1.3 | 1.01 |
| NCI-H838 | 0.256 | 0.257 | 0.252 | 0.235 | 0.556 | 0.378 | 0.391 | 0.362 | 0.989 | 0.911 | 1.09 | 0.887 | 0.648 | 0.565 | 0.596 | 0.547 | 0.738 | 0.62 | 0.663 | 0.592 |
| NCI-H1355 | 0.51 | 0.451 | 0.481 | 0.31 | 0.391 | 0.352 | 0.389 | 0.295 | 0.731 | 0.719 | 0.946 | 0.697 | 0.497 | 0.456 | 0.438 | 0.427 | 0.685 | 0.516 | 0.739 | 0.578 |
| NCI-H1395 | 0.733 | 0.671 | 0.8 | 0.476 | 0.654 | 0.682 | 1.02 | 0.477 | 1.16 | 1.1 | 1.05 | 0.506 | 0.477 | 0.449 | 0.48 | 0.449 | 0.844 | 0.721 | 0.559 | 0.432 |
| NCI-H1437 | 0.37 | 0.433 | 0.383 | 0.264 | 0.416 | 0.379 | 0.394 | 0.301 | 0.876 | 1.25 | 0.88 | 0.613 | 0.396 | 0.292 | 0.352 | 0.31 | 0.608 | 0.854 | 0.529 | 0.324 |
| NCI-H1651 | 0.647 | 0.627 | 0.906 | 0.509 | 0.45 | 0.658 | 0.532 | 0.477 | 1.05 | 1.23 | 1.3 | 0.624 | 0.369 | 0.44 | 0.369 | 0.321 | 0.517 | 0.607 | 0.601 | 0.528 |
